# ChEMBL document CHEMBL4680265, “Anti-tubulin agent vinorelbine inhibits metastasis of cancer cells by regulating epithelial-mesenchymal transition” (Eur J Med Chem, 2020)
# Calls of active or inactive are those of the source. The calls are words filed in the database; no cut-off is given here.
# Key:
# NCI-H1975 [1] = assay: Induction of apoptosis in human NCI-H1975 cells assessed as decrease in Bcl-2 expression at 1 to 100 nM incubated for 48 hrs by Western blot analysis; assay type: functional, cell-based; details: dose 1-100 nM
# HepG2 [2] = assay: Inhibition of epithelial-mesenchymal transition in human HepG2 cells assessed as decrease in Vimentin expression at 0.1 to 10 uM by Western blot analysis; assay type: functional, cell-based; details: dose 0.1-10 µM
# HCT-116 [3] = assay: Inhibition of epithelial-mesenchymal transition in human HCT-116 cells assessed as downregulation of MMP-9 by Western blot analysis; assay type: functional, cell-based; details: dose 0.01-1 µM
# HCT-116 [4] = assay: Cytotoxicity against human HCT-116 cells assessed as reduction in cell viability incubated for 48 hrs by MTT assay; assay type: functional, cell-based; details: HCT-116, 48 h
# NCI-H1975 [5] = assay: Induction of cell cycle arrest in human NCI-H1975 cells assessed as increase in G2/M phase accumulation at 1 nM incubated for 24 hrs by propidium iodide staining based flow cytometry analysis relative to control; assay type: functional
# HepG2 [6] = assay: Induction of cell cycle arrest in human HepG2 cells assessed as decrease in cyclin B1 level at 0.1 to 10 uM incubated for 24 hrs by Western blot analysis; assay type: functional, cell-based; details: dose 0.1-10 µM
# NCI-H1975 [7] = assay: Inhibition of epithelial-mesenchymal transition in human NCI-H1975 cells assessed as increase in E-cadherin expression at 1 to 100 nM by Western blot analysis; assay type: functional, cell-based; details: dose 1-100 nM
# HCT-116 [8] = assay: Inhibition of epithelial-mesenchymal transition in human HCT-116 cells assessed as decrease in Vimentin expression at 0.01 to 1 uM by Western blot analysis; assay type: functional, cell-based; details: dose 0.01-1 µM
# NCI-H1975 [9] = assay: Inhibition of epithelial-mesenchymal transition in human NCI-H1975 cells assessed as decrease in N-cadherin expression at 1 to 100 nM by Western blot analysis; assay type: functional, cell-based; details: dose 1-100 nM
# HepG2 [10] = assay: Induction of apoptosis in human HepG2 cells assessed as increase in late apoptotic cells at 0.1 to 10 uM incubated for 48 hrs by annexin V-FITC and PI staining based flow cytometry analysis; assay type: functional, cell-based; details: dose 0.1-10 µM
# HCT-116 [11] = assay: Inhibition of epithelial-mesenchymal transition in human HCT-116 cells assessed as decrease in N-cadherin expression at 0.01 to 1 uM by Western blot analysis; assay type: functional, cell-based; details: dose 0.01-1 µM
# HepG2 [12] = assay: Induction of apoptosis in human HepG2 cells assessed as decrease in Bcl-xl expression at 0.1 to 10 uM incubated for 48 hrs by Western blot analysis; assay type: functional, cell-based; details: dose 0.1-10 µM
# NCI-H1975 [13] = assay: Induction of apoptosis in human NCI-H1975 cells assessed as increase in Bax expression at 1 to 100 nM incubated for 48 hrs by Western blot analysis; assay type: functional, cell-based; details: dose 1-100 nM
# HCT-116 [14] = assay: Induction of apoptosis in human HCT-116 cells assessed as increase in late apoptotic cells at 0.01 to 1 uM incubated for 48 hrs by annexin V-FITC and PI staining based flow cytometry analysis; assay type: functional, cell-based; details: dose 0.01-1 µM
# NCI-H1975 [15] = assay: Antimigratory activity against human NCI-H1975 cells assessed as reduction in migration at 1 nM measured after 96 hrs by scratch wound healing based inverted microscopic analysis relative to control; assay type: functional
# HCT-116 [16] = assay: Induction of apoptosis in human HCT-116 cells assessed as decrease in Bcl-2 expression at 0.01 to 1 uM incubated for 48 hrs by Western blot analysis; assay type: functional, cell-based; details: dose 0.01-1 µM
# NCI-H1975 [17] = assay: Inhibition of epithelial-mesenchymal transition in human NCI-H1975 cells assessed as increase in Vimentin expression at 1 to 100 nM by Western blot analysis; assay type: functional, cell-based; details: dose 1-100 nM
# HepG2 [18] = assay: Inhibition of epithelial-mesenchymal transition in human HepG2 cells assessed as […] in E-cadherin expression at 0.1 to 10 uM by Western blot analysis; assay type: functional, cell-based; details: dose 0.1-10 µM
# NCI-H1975 [19] = assay: Induction of cell cycle arrest in human NCI-H1975 cells assessed as increase in G2/M phase accumulation at 10 nM incubated for 24 hrs by propidium iodide staining based flow cytometry analysis relative to control; assay type: functional
# NCI-H1975 [20] = assay: Induction of apoptosis in human NCI-H1975 cells assessed as decrease in Bcl-xl expression at 1 to 100 nM incubated for 48 hrs by Western blot analysis; assay type: functional, cell-based; details: dose 1-100 nM
# HCT-116 [21] = assay: Induction of apoptosis in human HCT-116 cells assessed as decrease in Bcl-xl expression at 0.01 to 1 uM incubated for 48 hrs by Western blot analysis; assay type: functional, cell-based; details: dose 0.01-1 µM
# NCI-H1975 [22] = assay: Antimigratory activity against human NCI-H1975 cells assessed as reduction in migration at 5 nM measured after 96 hrs by scratch wound healing based inverted microscopic analysis relative to control; assay type: functional
# HepG2 [23] = assay: Inhibition of epithelial-mesenchymal transition in human HepG2 cells assessed as downregulation of MMP-9 by Western blot analysis; assay type: functional, cell-based; details: dose 0.1-10 µM
# HCT-116 [24] = assay: Induction of apoptosis in human HCT-116 cells assessed as increase in Bax expression at 0.01 to 1 uM incubated for 48 hrs by Western blot analysis; assay type: functional, cell-based; details: dose 0.01-1 µM
# HCT-116 [25] = assay: Inhibition of epithelial-mesenchymal transition in human HCT-116 cells assessed as increase in E-cadherin expression at 0.01 to 1 uM by Western blot analysis; assay type: functional, cell-based; details: dose 0.01-1 µM
# HCT-116 [26] = assay: Inhibition of colony formation in human HCT-116 cells at 0.01 to 1 uM incubated for 3 to 4 days by crystal violet staining based assay; assay type: functional, cell-based; details: dose 0.01-1 µM, time 3-4 day
# NCI-H1975 [27] = assay: Inhibition of epithelial-mesenchymal transition in human NCI-H1975 cells assessed as downregulation of Snail-1 by Western blot analysis; assay type: functional, cell-based; details: dose 1-100 nM
# HCT-116 [28] = assay: Inhibition of epithelial-mesenchymal transition in human HCT-116 cells assessed as downregulation of MMP-2 by Western blot analysis; assay type: functional, cell-based; details: dose 0.01-1 µM
# NCI-H1975 [29] = assay: Cytotoxicity against human NCI-H1975 cells assessed as reduction in cell viability incubated for 48 hrs by MTT assay; assay type: functional, cell-based; details: NCI-H1975, 48 h
# HepG2 [30] = assay: Cytotoxicity against human HepG2 cells assessed as effect on cell morphology incubated for 48 hrs by DAPI staining based fluorescence microscopy; assay type: functional; details: dose 0.1-10 µM
smiles,measurement,setting,value
CCC1=C[C@@H]2CN(C1)Cc1c([nH]c3ccccc13)[C@@](C(=O)OC)(c1cc3c(cc1OC)N(C)[C@H]1[C@@](O)(C(=O)OC)[C@H](OC(C)=O)[C@]4(CC)C=CCN5CC[C@]31[C@@H]54)C2 [VINORELBINE],Activity,NCI-H1975 [1],Active
same,inhibition,HepG2 [2],inactive
same,inhibition,HCT-116 [3],Dose-dependent effect
same,IC50,HCT-116 [4],14.9 nM
same,Activity,NCI-H1975 [5],17.39%
same,Activity,HepG2 [6],Active
same,inhibition,NCI-H1975 [7],Active
same,inhibition,HCT-116 [8],inactive
same,inhibition,NCI-H1975 [9],Active
same,Activity,HepG2 [10],Active
same,inhibition,HCT-116 [11],Active
same,Activity,HepG2 [12],Active
same,Activity,NCI-H1975 [13],Active
same,Activity,HCT-116 [14],Active
same,inhibition at 0.001 µM,NCI-H1975 [15],0.7%
same,Activity,HCT-116 [16],Active
same,inhibition,NCI-H1975 [17],Active
same,inhibition,HepG2 [18],inactive
same,Activity,NCI-H1975 [19],34.31%
same,Activity,NCI-H1975 [20],Active
same,Activity,HCT-116 [21],Active
same,inhibition at 0.005 µM,NCI-H1975 [22],52.6%
same,inhibition,HepG2 [23],Dose-dependent effect
same,Activity,HCT-116 [24],Active
same,inhibition,HCT-116 [25],Active
same,inhibition,HCT-116 [26],Active
same,inhibition,NCI-H1975 [27],Dose-dependent effect
same,inhibition,HCT-116 [28],Dose-dependent effect
same,IC50,NCI-H1975 [29],8 nM
same,Activity,HepG2 [30],Dose-dependent effect
